target: Protein mono-ADP-ribosyltransferase PARP14 (Homo sapiens, UniProt Q460N5); assay: Displacement of ARTK(Bio)QTARK(Aoa-RADP)S from His6-tagged PARP14 MD2 (A994 to N1191 residues) (unknown origin) expressed in bacterial expression system after 30 mins by AlphaScreen assay
Sequence (Q460N5 whole entry, the tested form may be a part): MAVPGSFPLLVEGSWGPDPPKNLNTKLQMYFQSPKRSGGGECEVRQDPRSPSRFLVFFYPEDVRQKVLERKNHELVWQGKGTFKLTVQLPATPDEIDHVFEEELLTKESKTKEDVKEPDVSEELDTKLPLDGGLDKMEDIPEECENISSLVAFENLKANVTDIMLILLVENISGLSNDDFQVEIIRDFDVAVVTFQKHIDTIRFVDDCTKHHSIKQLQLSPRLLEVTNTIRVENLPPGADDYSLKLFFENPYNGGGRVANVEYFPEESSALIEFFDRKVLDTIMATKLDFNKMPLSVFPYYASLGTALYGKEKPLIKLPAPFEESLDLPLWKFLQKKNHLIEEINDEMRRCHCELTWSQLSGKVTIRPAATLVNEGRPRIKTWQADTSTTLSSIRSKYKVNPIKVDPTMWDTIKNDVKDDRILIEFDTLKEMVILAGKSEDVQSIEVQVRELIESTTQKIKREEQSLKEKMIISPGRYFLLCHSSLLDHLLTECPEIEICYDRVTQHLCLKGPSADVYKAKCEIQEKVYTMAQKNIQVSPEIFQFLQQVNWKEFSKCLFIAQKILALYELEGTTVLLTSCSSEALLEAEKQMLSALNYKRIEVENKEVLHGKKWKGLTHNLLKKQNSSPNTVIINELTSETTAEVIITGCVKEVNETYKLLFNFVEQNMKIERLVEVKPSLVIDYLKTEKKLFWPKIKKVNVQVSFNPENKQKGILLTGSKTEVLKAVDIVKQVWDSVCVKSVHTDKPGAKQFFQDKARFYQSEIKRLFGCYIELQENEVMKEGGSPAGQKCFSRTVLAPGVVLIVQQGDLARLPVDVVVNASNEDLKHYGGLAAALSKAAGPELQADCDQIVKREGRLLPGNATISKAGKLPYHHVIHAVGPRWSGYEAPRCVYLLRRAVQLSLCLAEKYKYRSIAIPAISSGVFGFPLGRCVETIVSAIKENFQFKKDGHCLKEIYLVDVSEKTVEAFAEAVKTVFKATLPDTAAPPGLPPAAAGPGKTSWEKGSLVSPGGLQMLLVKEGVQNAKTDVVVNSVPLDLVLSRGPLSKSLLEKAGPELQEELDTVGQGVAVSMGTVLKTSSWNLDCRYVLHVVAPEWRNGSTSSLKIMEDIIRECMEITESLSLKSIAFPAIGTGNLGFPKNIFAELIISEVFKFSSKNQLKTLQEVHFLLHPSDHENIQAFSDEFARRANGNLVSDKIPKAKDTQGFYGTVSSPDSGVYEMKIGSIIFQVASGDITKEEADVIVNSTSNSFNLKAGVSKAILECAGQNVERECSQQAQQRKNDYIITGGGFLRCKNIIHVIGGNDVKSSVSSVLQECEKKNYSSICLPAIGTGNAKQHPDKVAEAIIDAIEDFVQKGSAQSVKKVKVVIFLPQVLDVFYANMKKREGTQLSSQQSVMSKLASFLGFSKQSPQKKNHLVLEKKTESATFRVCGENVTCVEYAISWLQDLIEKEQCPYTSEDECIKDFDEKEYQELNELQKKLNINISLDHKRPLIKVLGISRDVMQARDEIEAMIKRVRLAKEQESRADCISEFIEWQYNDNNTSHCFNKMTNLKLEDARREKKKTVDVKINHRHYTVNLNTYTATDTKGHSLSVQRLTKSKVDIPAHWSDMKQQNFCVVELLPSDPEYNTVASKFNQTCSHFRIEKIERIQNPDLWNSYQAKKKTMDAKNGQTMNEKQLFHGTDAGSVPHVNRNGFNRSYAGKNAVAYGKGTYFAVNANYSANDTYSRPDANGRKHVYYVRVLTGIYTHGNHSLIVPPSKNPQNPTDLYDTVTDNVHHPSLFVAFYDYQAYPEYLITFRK

Row | Compound | IC50
1 | CC(Nc1ccccc1-c1cccc2c1[nH]c1ccccc12)C(F)(F)F (racemic) | > 50 µM
2 | COc1ccc2[nH]c3c(-c4ccccc4NC(C)=O)cccc3c2c1 | > 50 µM
3 | CC(=O)Nc1ccccc1-c1cccc2c3c([nH]c12)CCNC3 | > 50 µM
4 | CC(=O)Nc1ccccc1-c1cccc2c(C(C)C)c[nH]c12 | 18 µM
